Reference: BigSolDB 2.1

O.O=C([O-])[C@H](O)[C@@H](O)[C@H](O)[C@H](O)CO.O=C([O-])[C@H](O)[C@@H](O)[C@H](O)[C@H](O)CO.[Ca+2]
solubility (mole fraction)
Conditions	in acetonitrile	in ethanol	in methanol	in n-propanol	in water
279.15 K	4.28e-06	9.52e-06	1.15e-05	5.01e-06	–
279.65 K	–	–	–	–	0.000997
283.15 K	4.56e-06	1.06e-05	1.26e-05	5.83e-06	–
284.65 K	–	–	–	–	0.00108
288.15 K	5.33e-06	1.29e-05	1.46e-05	7.78e-06	–
289.15 K	–	–	–	–	0.0012
293.15 K	7.75e-06	1.51e-05	1.77e-05	1.04e-05	–
294.15 K	–	–	–	–	0.00129
298.15 K	1.02e-05	1.73e-05	1.95e-05	1.33e-05	–
299.15 K	–	–	–	–	0.00146
303.15 K	1.24e-05	1.99e-05	2.34e-05	1.62e-05	0.00165
308.15 K	–	–	–	–	0.00199
308.65 K	1.64e-05	2.32e-05	2.65e-05	–	–
313.15 K	–	–	–	–	0.00227
313.65 K	1.99e-05	2.75e-05	2.99e-05	–	–
318.15 K	2.39e-05	3.04e-05	3.5e-05	–	0.00269
323.15 K	–	–	–	–	0.00311
